In ChEMBL document CHEMBL3621071, “Novel isoniazid-amidoether derivatives: Synthesis, characterization and antimycobacterial activity evaluation” (Medchemcomm, 2015) one finds MIC99 and Activity data, which are given here for 24 molecules.

Converted amounts (≈) assume the structure as drawn. The source made the active and inactive calls. The calls are words filed in the database; no cut-off is given here.

In series [1] the test system is Mycobacterium tuberculosis. The series is described as follows: Antimycobacterial activity against Mycobacterium tuberculosis H37Rv ATCC 27294 assessed as inhibition of bacterial growth incubated for 14 days by inverted plate reader based macroscopy. The settings on record: H37Rv ATCC 27294, 336 h. It is filed as functional.
The next series relates to THP-1. The series is described as follows: Cytotoxic activity against human THP1 cells. It counts as cell-based.
Series [2] has as its system Mycobacterium tuberculosis. As to the kind of experiment: Antimycobacterial activity against Mycobacterium tuberculosis H37Rv infected in Balb/c mouse assessed as reduction in lung bacterial load at 10 mg/kg, po dosed once daily 5 days per week for 3 weeks. It counts as functional.
The subject of series [3] is Mycobacterium tuberculosis. As to the kind of experiment: Antimycobacterial activity against Mycobacterium tuberculosis H37Rv infected in Balb/c mouse assessed as reduction in lung bacterial load at 10 mg/kg, po dosed once daily 5 days per week for 6. It is filed as functional.
Series [4] concerns Mycobacterium tuberculosis. The series is described as follows: Antimycobacterial activity against Mycobacterium tuberculosis H37Rv infected in Balb/c mouse assessed as reduction in lung bacterial load at 10 mg/kg, po dosed once daily 5 days per week for 10. It is filed as functional, organism-based.
For series [5], the system named is Mycobacterium tuberculosis. The series is described as follows: Antimycobacterial activity against Mycobacterium tuberculosis H37Rv infected in Balb/c mouse assessed as reduction in spleen bacterial load at 10 mg/kg, po dosed once daily 5 days per week for 3 weeks. It counts as functional.
The subject of series [6] is Mycobacterium tuberculosis. The series is described as follows: Antimycobacterial activity against Mycobacterium tuberculosis H37Rv infected in Balb/c mouse assessed as reduction in spleen bacterial load at 10 mg/kg, po dosed once daily 5 days per week for 6 weeks. It is filed as functional.
The test system of series [7] is Mycobacterium tuberculosis. As to the kind of experiment: Antimycobacterial activity against Mycobacterium tuberculosis H37Rv infected in Balb/c mouse assessed as reduction in spleen bacterial load at 10 mg/kg, po dosed once daily 5 days per week for 10 weeks. It is filed as functional, organism-based.
Series [8] concerns Mycobacterium tuberculosis. As to the kind of experiment: Antimycobacterial activity against Mycobacterium tuberculosis H37Rv infected in Balb/c mouse assessed as reduction in lung bacterial load at 25 mg/kg, po dosed once daily 5 days per week for 3 weeks. It counts as functional.
Series [9] concerns Mycobacterium tuberculosis. The series is described as follows: Antimycobacterial activity against Mycobacterium tuberculosis H37Rv infected in Balb/c mouse assessed as reduction in lung bacterial load at 25 mg/kg, po dosed once daily 5 days per week for 6 weeks. It counts as functional.
The subject of series [10] is Mycobacterium tuberculosis. The series is described as follows: Antimycobacterial activity against Mycobacterium tuberculosis H37Rv infected in Balb/c mouse assessed as reduction in lung bacterial load at 25 mg/kg, po dosed once daily 5 days per week for 10 weeks. It counts as functional.
The test system of series [11] is Mycobacterium tuberculosis. As to the kind of experiment: Antimycobacterial activity against Mycobacterium tuberculosis H37Rv infected in Balb/c mouse assessed as reduction in spleen bacterial load at 25 mg/kg, po dosed once daily 5 days per week for 3 weeks. It is filed as functional.
Series [12] concerns Mycobacterium tuberculosis. As to the kind of experiment: Antimycobacterial activity against Mycobacterium tuberculosis H37Rv infected in Balb/c mouse assessed as reduction in spleen bacterial load at 25 mg/kg, po dosed once daily 5 days per week for 6 weeks. It counts as functional, organism-based.
In series [13] the test system is Mycobacterium tuberculosis. As to the kind of experiment: Antimycobacterial activity against Mycobacterium tuberculosis H37Rv infected in Balb/c mouse assessed as reduction in spleen bacterial load at 25 mg/kg, po dosed once daily 5 days per week for 10 weeks. It is filed as functional.
Series [14] relates to Mycobacterium tuberculosis. The series is described as follows: Antimycobacterial activity against Mycobacterium tuberculosis H37Rv infected in Balb/c mouse assessed as reduction in lung bacterial load at 25 mg/kg, po dosed once daily 5 days per week for 3 to 10 weeks. It counts as functional, organism-based.
The subject of series [15] is Mycobacterium tuberculosis. The series is described as follows: Antimycobacterial activity against Mycobacterium tuberculosis H37Rv infected in Balb/c mouse assessed as reduction in lung bacterial load at 50 mg/kg, po dosed once daily 5 days per week for 3 to 10 weeks. It is filed as functional, organism-based.
Series [16] has as its system Mycobacterium tuberculosis. As to the kind of experiment: Antimycobacterial activity against Mycobacterium tuberculosis H37Rv infected in Balb/c mouse assessed as reduction in lung bacterial load at 100 mg/kg, po dosed once daily 5 days per week for 3 to 10 weeks. It counts as functional, organism-based.
For series [17], the system named is Mycobacterium tuberculosis. The series is described as follows: Antimycobacterial activity against Mycobacterium tuberculosis H37Rv infected in Balb/c mouse assessed as reduction in spleen bacterial load at 50 mg/kg, po dosed once daily 5 days per week for 3 weeks. It counts as functional.
In series [18] the test system is Mycobacterium tuberculosis. As to the kind of experiment: Antimycobacterial activity against Mycobacterium tuberculosis H37Rv infected in Balb/c mouse assessed as reduction in spleen bacterial load at 50 mg/kg, po dosed once daily 5 days per week for 6 weeks. It is filed as functional.
Series [19] deals with Mycobacterium tuberculosis. As to the kind of experiment: Antimycobacterial activity against Mycobacterium tuberculosis H37Rv infected in Balb/c mouse assessed as reduction in spleen bacterial load at 50 mg/kg, po dosed once daily 5 days per week for 10 weeks. It counts as functional.
Series [20] deals with Mycobacterium tuberculosis. As to the kind of experiment: Antimycobacterial activity against Mycobacterium tuberculosis H37Rv infected in Balb/c mouse assessed as reduction in spleen bacterial load at 100 mg/kg, po dosed once daily 5 days per week for 3 weeks. It is filed as functional.
Series [21] deals with Mycobacterium tuberculosis. The series is described as follows: Antimycobacterial activity against Mycobacterium tuberculosis H37Rv infected in Balb/c mouse assessed as reduction in spleen bacterial load at 100 mg/kg, po dosed once daily 5 days per week for 10 weeks. It counts as functional.

A word on the MIC99: it is the lowest concentration that inhibits either 99% of growth or 99% of the strains tested, depending on the study. For the molecule `Cc1ccc(CNC(=O)COc2ccc(/C=N/NC(=O)c3ccncc3)cc2)cc1`, in [1], the MIC99 was 0.39 µM (≈ 0.157 µg/mL). In the series with THP-1, the Activity is over 50 µM.

In the case of `O=C(COc1ccc(/C=N/NC(=O)c2ccncc2)cc1)Nc1ccc(F)cc1`, the MIC99 in series [1] is 0.78 µM (≈ 0.306 µg/mL). Besides, in the series with THP-1, the Activity was over 50 µM.

Consider `CCc1ccc(NC(=O)COc2ccc(/C=N/NC(=O)c3ccncc3)cc2)cc1`, for which the MIC99 in [1] came out at 0.39 µM (≈ 0.157 µg/mL). In addition, the Activity with THP-1 is over 50 µM.

`O=C(COc1ccc(/C=N/NC(=O)c2ccncc2)cc1)Nc1ccc(Br)cc1`: in series [1], the MIC99 stood at 0.78 µM (≈ 0.354 µg/mL). In the series on THP-1, this molecule displayed an Activity of over 50 µM.

Take `O=C(COc1ccc(/C=N/NC(=O)c2ccncc2)cc1)Nc1ccccc1Br`: in series [1], the MIC99 amounted to 0.78 µM (≈ 0.354 µg/mL). This molecule returned an Activity with THP-1 of over 50 µM.

`CC(C)c1ccc(NC(=O)COc2ccc(/C=N/NC(=O)c3ccncc3)cc2)cc1`: in series [1], the MIC99 was found to be 0.39 µM (≈ 0.162 µg/mL). The molecule also returned an Activity with THP-1 of over 50 µM.

As for `COc1ccc(NC(=O)COc2ccc(/C=N/NC(=O)c3ccncc3)cc2)cc1`, in [1], the MIC99 came out at 0.39 µM (≈ 0.158 µg/mL). Further, the Activity in the series with THP-1 was over 50 µM.

Turning to `CO[C@H]1/C=C/O[C@@]2(C)Oc3c(C)c(O)c4c(O)c(c(/C=N/N5CCN(C)CC5)c(O)c4c3C2=O)NC(=O)/C(C)=C\C=C\[C@H](C)[C@H](O)[C@@H](C)[C@@H](O)[C@@H](C)[C@H](OC(C)=O)[C@@H]1C` [RIFAMPIN], the Activity in series [2] is listed as 1.93 log10CFU; in [3] it was 2.8 log10CFU; in series [5] it was 1.76 log10CFU; in series [6] it was 3.31 log10CFU. Also, the result in [4] and in [7] was Active.

Regarding `O=C(COc1ccc(/C=N/NC(=O)c2ccncc2)cc1)Nc1cccc(Br)c1`, in series [1], the MIC99 was found to be 0.78 µM (≈ 0.354 µg/mL). The Activity in the series on THP-1 was over 50 µM.

On to `O=C(COc1ccc(/C=N/NC(=O)c2ccncc2)cc1)NCc1ccccc1`, for which, in series [1], the MIC99 was determined as 0.78 µM (≈ 0.303 µg/mL). In the series with THP-1, this molecule came in with an Activity of over 50 µM.

`COc1ccc(CNC(=O)COc2ccc(/C=N/NC(=O)c3ccncc3)cc2)cc1`: the MIC99 in [1] is 0.39 µM (≈ 0.163 µg/mL). The molecule also gave an Activity in the series on THP-1 of over 50 µM.

As to `O=C(COc1ccc(/C=N/NC(=O)c2ccncc2)cc1)NCCc1ccccc1`, the MIC99 in series [1] stood at 0.78 µM (≈ 0.314 µg/mL). The molecule further yielded an Activity in the series with THP-1 of over 50 µM.

As for `O=C(COc1ccc(/C=N/NC(=O)c2ccncc2)cc1)Nc1cccnc1`, the MIC99 in series [1] was determined as 0.39 µM (≈ 0.146 µg/mL). This molecule also returned an Activity in the series with THP-1 of over 50 µM.

Regarding `O=C(COc1ccc(/C=N/NC(=O)c2ccncc2)cc1)Nc1ccccc1`, the MIC99 in series [1] stood at 0.78 µM (≈ 0.292 µg/mL). For the same molecule, in the series on THP-1, the Activity is over 50 µM.

With `NNC(=O)c1ccncc1` [ISONIAZID], in series [1], the MIC99 was 0.39 µM (≈ 0.0535 µg/mL). Also, the Activity in series [8] is 1.22 log10CFU; in [9], 2.59 log10CFU; in series [10], 3.38 log10CFU; in [11], 2.66 log10CFU. Moreover, the outcome in series [12] and in series [13] was Active.

Regarding `O=C(COc1ccc(/C=N/NC(=O)c2ccncc2)cc1)Nc1cccc(F)c1`, the MIC99 in series [1] is 0.78 µM (≈ 0.306 µg/mL). The molecule further yielded an Activity in the series with THP-1 of over 50 µM.

Turning to `Cc1ccc(NC(=O)COc2ccc(/C=N/NC(=O)c3ccncc3)cc2)cc1`, the MIC99 in series [1] worked out at 0.39 µM (≈ 0.151 µg/mL). For the same molecule, the Activity is over 50 µM in the series on THP-1; 1.19 log10CFU in series [11]; 1.23 log10CFU in series [13]; 1.4 log10CFU in series [17]; 2.28 log10CFU in [18]; 2.14 log10CFU in [19]. Also, the results for the Activity in series [20] and in series [21] were 1.77 log10CFU and 3.11 log10CFU, respectively. Moreover, the result in [14], in [15] and in series [16] was inactive.

In the case of `O=C(COc1ccc(/C=N/NC(=O)c2ccncc2)cc1)Nc1cccc(Cl)c1`, the MIC99 in [1] was found to be 0.78 µM (≈ 0.319 µg/mL). In the series on THP-1, the Activity is over 50 µM.

In the case of `O=C(COc1ccc(/C=N/NC(=O)c2ccncc2)cc1)Nc1ccccn1`, the MIC99 in series [1] amounted to 0.78 µM (≈ 0.293 µg/mL). This molecule also registered an Activity in the series with THP-1 of over 50 µM.

`O=C(COc1ccc(/C=N/NC(=O)c2ccncc2)cc1)Nc1ccccc1F`: in [1], the MIC99 is 0.78 µM (≈ 0.306 µg/mL). The same molecule showed an Activity in the series on THP-1 of over 50 µM.

On to `O=C(COc1ccc(/C=N/NC(=O)c2ccncc2)cc1)Nc1cccc2ccccc12`, for which the MIC99 in series [1] came to 1.56 µM (≈ 0.662 µg/mL). The molecule also gave an Activity in the series with THP-1 of over 50 µM.

For `O=C(COc1ccc(/C=N/NC(=O)c2ccncc2)cc1)Nc1ccc(Cl)cc1`, the MIC99 in series [1] was 0.39 µM (≈ 0.159 µg/mL). This molecule also yielded an Activity in the series on THP-1 of over 50 µM.

Consider `O=C(COc1ccc(/C=N/NC(=O)c2ccncc2)cc1)Nc1ccc([N+](=O)[O-])cc1`, for which the MIC99 in series [1] is 1.56 µM (≈ 0.654 µg/mL). The Activity in the series on THP-1 is over 50 µM.

As to `O=C(COc1ccc(/C=N/NC(=O)c2ccncc2)cc1)Nc1ccccc1Cl`, the MIC99 in series [1] came to 0.78 µM (≈ 0.319 µg/mL). In the series with THP-1, this molecule showed an Activity of over 50 µM.
